Assays:
[1] = repeated application to normal skin of adults without acne; settings: applied repeatedly to face and arm, 2 adults, several days
[2] = penetration of PG into human nails; settings: 30 minutes after application of a thin layer to nail surface, adults
wart = settings: conventional treatment; cited from earlier work

Row | Compound | adverse reactions on normal skin [1] | absorption into nails [2] | time for wart removal process (wart)
1 | CC(O)CO (stereo not drawn) [100% PG, propylene glycol] | No adverse reactions were observed | virtually no PG can be found on the nail surface | 
2 | O=C(O)c1ccccc1O [high strength salicylic acid, salicylic acid] |  |  | 6 to 12 weeks

Source: patent publication US8513225B2, “Composition and method for topical treatment of skin lesions” (Winlind Skincare, LLC, priority 2008, dated 2013)
